For this test, the target named is T1, JAK3 (Homo sapiens, UniProt P52333).
T1 construct: endogenous in cells; host or cells: Molt4 (ATCC CRL-1582) and Ramos (ATCC CRL-1596), mixed lysate 1:2
T1 sequence (P52333 1-1124): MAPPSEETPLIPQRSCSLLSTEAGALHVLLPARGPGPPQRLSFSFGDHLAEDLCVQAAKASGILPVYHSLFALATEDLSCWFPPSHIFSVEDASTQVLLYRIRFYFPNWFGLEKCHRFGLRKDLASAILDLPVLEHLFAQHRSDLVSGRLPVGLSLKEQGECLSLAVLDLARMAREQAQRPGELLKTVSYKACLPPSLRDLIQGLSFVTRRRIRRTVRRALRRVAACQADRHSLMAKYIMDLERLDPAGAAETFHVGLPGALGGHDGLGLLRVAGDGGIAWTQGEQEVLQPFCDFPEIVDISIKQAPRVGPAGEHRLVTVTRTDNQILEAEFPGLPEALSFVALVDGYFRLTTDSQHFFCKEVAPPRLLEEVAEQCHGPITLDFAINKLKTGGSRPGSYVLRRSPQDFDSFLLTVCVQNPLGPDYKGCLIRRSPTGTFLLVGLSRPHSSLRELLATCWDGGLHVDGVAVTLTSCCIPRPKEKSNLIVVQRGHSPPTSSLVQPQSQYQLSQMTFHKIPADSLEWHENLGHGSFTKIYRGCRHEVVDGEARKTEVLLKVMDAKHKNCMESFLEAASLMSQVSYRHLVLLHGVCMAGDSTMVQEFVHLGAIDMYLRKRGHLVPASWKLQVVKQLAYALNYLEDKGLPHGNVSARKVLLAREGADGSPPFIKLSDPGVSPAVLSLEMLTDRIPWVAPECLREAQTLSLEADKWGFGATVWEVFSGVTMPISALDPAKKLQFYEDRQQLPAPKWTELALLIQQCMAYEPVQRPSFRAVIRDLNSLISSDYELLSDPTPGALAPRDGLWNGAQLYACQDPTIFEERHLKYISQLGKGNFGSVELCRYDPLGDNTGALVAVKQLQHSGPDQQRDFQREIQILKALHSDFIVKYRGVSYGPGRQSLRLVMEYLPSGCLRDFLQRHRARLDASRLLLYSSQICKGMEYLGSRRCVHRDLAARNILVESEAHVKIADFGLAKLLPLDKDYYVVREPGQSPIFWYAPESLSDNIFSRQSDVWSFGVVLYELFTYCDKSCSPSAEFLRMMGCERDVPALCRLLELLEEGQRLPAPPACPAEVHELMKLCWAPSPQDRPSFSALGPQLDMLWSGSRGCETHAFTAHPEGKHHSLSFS
Kind of test: Kinobeads assay, JAK3. It counts as binding. Particulars: mixed Molt4/Ramos lysate, read-out: Inhibition values (IC50) JAK3. As to the method: The compounds of the present invention as described in the previous examples were tested in a Kinobeads™ assay as described for ZAP-70 (WO-A 2007/137867). Briefly, test compounds (at various concentrations) and the affinity matrix with the immobilized aminopyrido-pyrimidine ligand 24 were added to cell lysate aliquots and allowed to bind to the proteins in the lysate sample. After the incubation time the beads with captured proteins were separated from the lysate. Bound proteins were then eluted and the presence of JAK1, JAK2, JAK3 and TYK2 was detected and quantified using specific antibodies in a dot blot procedure and the Odyssey infrared detection system. Dose response curves for individual kinases were generated and IC50 values calculated. Kinobeads™ assays for ZAP-70 (WO-A 2007/137867) and for kinase selectivity profiling (WO-A 2006/134056) have been previously described.
The affinity matrix was washed two times with 15 mL of lx DP buffer containing 0.2% NP40 (IGEPAL® CA-630, Sigma, #13021) and then resuspended in 1×DP buffer containing 0.2% NP40 (3% beads slurry).
5×DP buffer: 250 mM Tris-HCl pH 7.4, 25% Glycerol, 7.5 mM MgCl2, 750 mM NaCl, 5 mM Na3VO4; filter the 5×DP buffer through a 0.22 μm filter and store in aliquots at −80° C. The 5×DP buffer is diluted with H2O to 1×DP buffer containing 1 mM DTT and 25 mM NaF.
Stock solutions of test compounds were prepared in DMSO. In a 96 well plate […] solution of diluted test compounds at 5 mM in DMSO were prepared. Starting with this solution a 1:3 dilution series (9 steps) was prepared. For control experiments (no test compound) a buffer containing 2% DMSO was used.
Molt4 cells (ATCC catalogue number CRL-1582) and Ramos cells (ATCC catalogue number CRL-1596) were grown in 1 L Spinner flasks (Integra Biosciences, #182101) in suspension in RPMI 1640 medium (Invitrogen, #21875-034) supplemented with 10% Fetal Bovine Serum (Invitrogen) at a density between 0.15×10^6 and 1.2×10^6 cells/mL. Cells were harvested by centrifugation, washed once with 1×PBS buffer (Invitrogen, #14190-094) and cell pellets were frozen in liquid nitrogen and subsequently stored at −80° C. Cells were homogenized in a Potter S homogenizer in lysis buffer: 50 mM Tris-HCl, 0.8% NP40, 5% glycerol, 150 mM NaCl, 1.5 mM MgCl2, 25 mM NaF, 1 mM sodium vanadate, 1 mM DTT, pH 7.5. One complete EDTA-free tablet (protease inhibitor cocktail, Roche Diagnostics, 1873580) per 25 mL buffer was added. The material was dounced 10 times using a mechanized POTTER S, transferred to 50 mL falcon tubes, incubated for 30 minutes on ice and spun down for 10 minutes at 20,000 g at 4° C. (10,000 rpm in Sorvall SLA600, precooled). The supernatant was transferred to an ultracentrifuge (UZ)-polycarbonate tube (Beckmann, 355654) and spun for 1 hour at 100.000 g at 4° C. (33.500 rpm in Ti50.2, precooled). The supernatant was transferred again to a fresh 50 mL falcon tube, the protein concentration was determined by a Bradford assay (BioRad) and samples containing 50 mg of protein per aliquot were prepared. The samples were immediately used for experiments or frozen in liquid nitrogen and stored frozen at −80° C.
Cell lysate (approximately 50 mg protein per plate) was thawed in a water bath at room temperature and then stored on ice. To the thawed cell lysate 1×DP 0.8% NP40 buffer containing protease inhibitors (1 tablet for 25 mL buffer; EDTA-free protease inhibitor cocktail; Roche Diagnostics 1873580) was added in order to reach a final protein concentration of 10 mg/mL total protein. The diluted cell lysate was stored on ice. Mixed Molt4/Ramos lysate was prepared by combining one volume of Molt4 lysate and two volumes of Ramos lysate (ratio 1:2).
To a 96 well filter plate (Multiscreen HTS, BV Filter Plates, Millipore #MSBVN1250) were added per well: 100 μL affinity matrix (3% beads slurry), […], of compound solution, and 50 μL of diluted lysate. […]

The values that follow come from patent publication US20140179664A1, “Heterocyclyl Pyrimidine Analogues As JAK Inhibitors” (Cellzome Limited, priority 2011, published 2014).

In the case of `Cn1cc(Nc2ncc(Cl)c(N[C@H](CO)c3ccccc3)n2)cn1` [Compound 4], the half-inhibitory concentration (IC50) (as a rule, the concentration that gives 50% inhibition) was less than 100 nM.
As to `CC[C@@H](Nc1nc(Nc2cnn(C)c2)ncc1Cl)c1ccccc1` [Compound 5], the concentration for half-maximal inhibition (IC50) lay in the range of 100 to 1000 nM.
For `Cn1cc(Nc2ncc(C(F)(F)F)c(N[C@H](CO)c3ccccc3)n2)cn1` [Compound 6], the half-maximal inhibitory concentration (IC50) was less than 100 nM.
In the case of `Cn1cc(Nc2ncc(Cl)c(NC(C)(CO)c3ccccc3)n2)cn1` (stereo not drawn) [Compound 7], the IC50 is 100 to 1000 nM.
For the molecule `Cn1cc(Nc2ncc(C(F)(F)F)c(NC(C)(CO)c3ccccc3)n2)cn1` (stereo not drawn) [Compound 8], the IC50 lay in the range of 100 to 1000 nM.
Regarding `OCCn1cc(Nc2ncc(Cl)c(N[C@H](CO)c3ccccc3)n2)cn1` [Compound 9], the half-maximal inhibitory concentration (IC50) is less than 100 nM.
As for `OCCn1cc(Nc2ncc(F)c(N[C@H](CO)c3ccccc3)n2)cn1` [Compound 10], the IC50 was less than 100 nM.
As for `Cn1cc(-c2cccc(C(CO)Nc3nc(Nc4cnn(CCO)c4)ncc3Cl)c2)cn1` (stereo not drawn) [Compound 94], the concentration for half-maximal inhibition (IC50) lay within 100 to 1000 nM.
Regarding `CCn1cc(Nc2ncc(Cl)c(N[C@H](CO)c3ccccc3OC)n2)cn1` [Compound 95], the IC50 is less than 100 nM.
As to `CCn1cc(Nc2ncc(Cl)c(N[C@H](CO)c3cccc(OC)c3)n2)cn1` [Compound 96], the IC50 is less than 100 nM.
In the case of `CCn1cc(Nc2ncc(Cl)c(N[C@H](CO)c3cccnc3)n2)cn1` [Compound 97], the IC50 is less than 100 nM.
`CNC(=O)Cn1cc(Nc2ncc(Cl)c(N[C@H](CO)c3ccccc3OC)n2)cn1` [Compound 98]: the 50% inhibitory concentration (IC50) is less than 100 nM.
Then `CNC(=O)Cn1cc(Nc2ncc(Cl)c(N[C@H](CO)c3cccc(OC)c3)n2)cn1` [Compound 99], with less than 100 nM; and `CNC(=O)Cn1cc(Nc2ncc(Cl)c(N[C@H](CO)c3ccccc3F)n2)cn1` [Compound 100], with less than 100 nM; and `COc1ccccc1[C@@H](CO)Nc1nc(Nc2cnn(CC(=O)N3CCOCC3)c2)ncc1Cl` [Compound 101], with less than 100 nM.
Take `COc1cccc([C@@H](CO)Nc2nc(Nc3cnn(CC(=O)N4CCOCC4)c3)ncc2Cl)c1` [Compound 102]: the half-inhibitory concentration (IC50) is less than 100 nM.
Then `O=C(Cn1cc(Nc2ncc(Cl)c(N[C@H](CO)c3ccccc3F)n2)cn1)N1CCOCC1` [Compound 103], with less than 100 nM; and `O=C(Cn1cc(Nc2ncc(Cl)c(N[C@H](CO)c3cccnc3)n2)cn1)N1CCOCC1` [Compound 104], with less than 100 nM; and `COc1ccccc1[C@@H](CO)Nc1nc(Nc2cnn(C(C)C)c2)ncc1Cl` [Compound 105], with less than 100 nM.
Take `COc1cccc([C@@H](CO)Nc2nc(Nc3cnn(C(C)C)c3)ncc2Cl)c1` [Compound 106]: the IC50 is 100 to 1000 nM.
Regarding `CC(C)n1cc(Nc2ncc(Cl)c(N[C@H](CO)c3cccnc3)n2)cn1` [Compound 107], the 50% inhibitory concentration (IC50) was less than 100 nM.
With `NC(=O)Cn1cc(Nc2ncc(F)c(N[C@H](CO)c3ccccc3)n2)cn1` [Compound 108], the IC50 was 100 to 1000 nM.
Then `CCn1cc(Nc2ncc(Cl)c(N[C@H](CO)c3ccccc3F)n2)cn1` [Compound 109], with less than 100 nM; and `CC(C)n1cc(Nc2ncc(Cl)c(N[C@H](CO)c3ccccc3F)n2)cn1` [Compound 110], with less than 100 nM; and `CNC(=O)Cn1cc(Nc2ncc(F)c(N[C@H](CO)c3ccccc3)n2)cn1` [Compound 111], with less than 100 nM.
Then `O=C(Cn1cc(Nc2ncc(F)c(N[C@H](CO)c3ccccc3)n2)cn1)N1CCOCC1` [Compound 112], with less than 100 nM.
With `NCCCn1cc(Nc2ncc(Cl)c(N[C@H](CO)c3ccccc3)n2)cn1` [Compound 113], the IC50 is less than 100 nM.
Consider `CC(C)OCCn1cc(Nc2ncc(Cl)c(N[C@H](CO)c3ccccc3)n2)cn1` [Compound 114], for which the IC50 is less than 100 nM.
Turning to `CC(C)NC(=O)Cn1cc(Nc2ncc(Cl)c(N[C@H](CO)c3ccccc3F)n2)cn1` [Compound 115], the IC50 is less than 100 nM.
Take `C[C@@H](CO)NC(=O)Cn1cc(Nc2ncc(Cl)c(N[C@H](CO)c3ccccc3F)n2)cn1` [Compound 116]: the IC50 is less than 100 nM.
`Cn1cc(Nc2ncc(Cl)c(NC(CO)c3ccccc3Cl)n2)cn1` (stereo not drawn) [Compound 117]: the 50% inhibitory concentration (IC50) was less than 100 nM.
Regarding `NC(=O)Cn1cc(Nc2ncc(Cl)c(NC(CO)c3ccccc3Cl)n2)cn1` (stereo not drawn) [Compound 118], the IC50 was less than 100 nM.
Regarding `CNC(=O)Cn1cc(Nc2ncc(Cl)c(NC(CO)c3ccccc3Cl)n2)cn1` (stereo not drawn) [Compound 119], the half-maximal inhibitory concentration (IC50) was less than 100 nM.
With `OCCn1cc(Nc2ncc(Cl)c(NC(CO)c3ccccc3Cl)n2)cn1` (stereo not drawn) [Compound 120], the half-maximal inhibitory concentration (IC50) was less than 100 nM.
Take `Cn1cc(Nc2ncc(Cl)c(NC(CO)c3cc(F)cc(F)c3)n2)cn1` (stereo not drawn) [Compound 121]: the half-maximal inhibitory concentration (IC50) is less than 100 nM.
For `OCCn1cc(Nc2ncc(Cl)c(NC(CO)c3cc(F)cc(F)c3)n2)cn1` (stereo not drawn) [Compound 122], the IC50 was less than 100 nM.
For `CNC(=O)Cn1cc(Nc2ncc(Cl)c(NC(CO)c3cc(F)cc(F)c3)n2)cn1` (stereo not drawn) [Compound 123], the IC50 is less than 100 nM.
Regarding `Cn1cc(Nc2ncc(Cl)c(NC(CO)c3cccc(N4CCOCC4=O)c3)n2)cn1` (stereo not drawn) [Compound 124], the half-maximal inhibitory concentration (IC50) is less than 100 nM.
`CCC(Nc1nc(Nc2cnn(C)c2)ncc1Cl)c1ccccc1F` (stereo not drawn) [Compound 125]: the concentration for half-maximal inhibition (IC50) was 100 to 1000 nM.
Take `CCC(Nc1nc(Nc2cnn(CC(N)=O)c2)ncc1Cl)c1ccccc1F` (stereo not drawn) [Compound 126]: the IC50 was in the range of 100 to 1000 nM.
With `CN(C)C(=O)C(Nc1nc(Nc2cnn(CCO)c2)ncc1Cl)c1ccccc1F` (stereo not drawn) [Compound 127], the IC50 was 100 to 1000 nM.
Then `O=C(NCC(F)(F)F)C(Nc1nc(Nc2cnn(CCO)c2)ncc1Cl)c1ccccc1F` (stereo not drawn) [Compound 128], with 100 to 1000 nM.
